Structures can show the parent of a compound that is named as a salt.
Target: T1, recombinant human renin (Homo sapiens, UniProt P00797)
T1 sequence (P00797 67-406): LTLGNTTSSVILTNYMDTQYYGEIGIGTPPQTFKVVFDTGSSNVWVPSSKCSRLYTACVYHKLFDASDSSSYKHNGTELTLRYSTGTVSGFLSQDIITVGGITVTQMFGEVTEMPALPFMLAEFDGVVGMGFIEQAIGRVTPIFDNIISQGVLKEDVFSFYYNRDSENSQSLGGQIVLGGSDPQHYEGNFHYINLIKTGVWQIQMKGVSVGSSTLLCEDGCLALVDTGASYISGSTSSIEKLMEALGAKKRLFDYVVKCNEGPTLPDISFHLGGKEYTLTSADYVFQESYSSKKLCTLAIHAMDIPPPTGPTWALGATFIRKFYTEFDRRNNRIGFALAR
Experiment: Primary renin inhibition assay: IC50 in buffer, 384 well MTP (AngI measured by EIA)
Assay type: biochemical
Conditions: human tetradecapeptide (1-14) substrate, incubated at 37° C. for 3 h, AngI quantified by EIA
Description: 1. Enzyme Immuno Assay (EIA) to Estimate AngI Accumulation and Renin Inhibition
1.1 Preparation of AngI-BSA Conjugate
1.3 mg (1 μmol) of AngI [1-10 (Bachem, H-1680)] and 17 mg (0.26 μmol) of BSA (Fluka, 05475) were dissolved in 4 mL of 0.1M phosphate buffer, pH 7.4, after which 2 mL of a 1:100 dilution of glutaraldehyde in H2O (Sigma G-5882) was added dropwise. The mixture was incubated overnight at 4° C., then dialyzed against 2 liters of 0.9% NaCl, twice for 4 h at rt, followed by dialysis against 2 liters of PBS 1× overnight at rt. The solution was then filtered with a Syringe filter, 0.45 μm (Nalgene, Cat. No. 194-2545). The conjugate can be stored in polypropylene tubes in 0.05% sodium azide at 4° C. for at least 12 months.
1.2 Preparation of BSA-AngI Coated MTP
Microtiter plates (MPT384, MaxiSorp™, Nunc) were incubated overnight at 4° C. with 80 μl of AngI (1-10)/BSA conjugate, diluted 1:100'000 in PBS 1× in a teflon beaker (exact dilution dependent on batch of conjugate), emptied, filled with 90 μl of blocking solution [0.5% BSA (Sigma A-2153) in PBS 1×, 0.02% NaN3], and incubated for at least 2 h at rt, or overnight at 4° C. 96 well MTP (MaxiSorp™, Nunc) were coated with 200 μl conjugate and blocked with 250 μl blocking solution as above, except that the blocking solution contained 3% BSA. The plates can be stored in blocking solution at 4° C. for 1 month.
1.3 AngI-EIA in 384 Well MTP
The AngI (1-10)/BSA coated MTP were washed 3 times with wash buffer (PBS 1×, 0.01% Tween 20) and filled with 75 μl of primary antibody solution (anti-AngI antiserum, pre-diluted 1:10 in horse serum), diluted to a final concentration of 1:100'000 in assay buffer (PBS 1×, 1 mM EDTA, 0.1% BSA, pH 7.4). 5 μl of the renin reaction (or standards in assay buffer) (see below) were added to the primary antibody solution and the plates were incubated overnight at 4° C. After the incubation the plates were washed 3 times with wash buffer and incubated with secondary antibody [anti-rabbit IgG, linked to horseradish peroxidase (Amersham Bioscience, NA 934V), diluted 1:2'000 in wash buffer] for 2 h at rt. The plates were washed 3 times with wash buffer and then incubated for 1 h at rt with substrate solution [1.89 mM ABTS (2,2′-azino-di-(3-ethyl-benzthiazolinsulfonate)] (Roche Diagnostics, 102 946) and 2.36 mM H2O2 [30%, (Fluka, 95300] in substrate buffer (0.1M sodium acetate, 0.05M sodium dihydrogen phosphate, pH 4.2). The OD of the plate was read at 405 nm in a microplate reader (FLUOStar Optima from BMG). The production of AngI during the renin reaction was quantified by comparing the OD of the sample with the OD of a standard curve of AngI(1-10), measured in parallel.
2. Primary Renin Inhibition Assay: IC50 in Buffer, 384 Well MTP
The renin assay was adapted from an assay described before (Fischli W. et al., Hypertension, 1991, 18:22-31) and consists of two steps: in the first step, recombinant human renin is incubated with its substrate (commercial human tetradecapeptide renin substrate) to create the product Angiotensin I (AngI). In the second step, the accumulated AngI is measured by an immunological assay (enzyme immuno assay, EIA). The detailed description of this assay is found below. The EIA is very sensitive and well suited for renin activity measurements in buffer or in plasma. Due to the low concentration of renin used in this assay (2 fmol per assay tube or 10 pM) it is possible to measure inhibitor affinities in this primary assay down to low pM concentration.
Recombinant human renin (3 pg/μl) in assay buffer (PBS 1×, 1 mM EDTA, 0.1% BSA, pH 7.4), human tetradecapeptide (1-14) substrate (Bachem, M-1120) [5 μM in 10 mM HCl], hydroxyquinoline sulfate (Fluka, 55100) [30 mM in H2O] and assay buffer were premixed at 4° C. at a ratio of 100:30:10:145. 47.5 μl per well of this premix was transferred into polypropylene plates (MTP384, Nunc). […]

| IC50 [nM] | Compound |
| --- | --- |
| 0.2 | COCCCc1ccc(Cl)c(CN(C(=O)C2=C(c3ccc(CCOc4c(Cl)cc(C)cc4Cl)cc3)C[C@@H]3CNC[C@H]2N3)C2CC2)c1 (racemic) [Example 1, (rac.)-(1R*,5S*)-7-{4-[2-(2,6-Dichloro-4-methyl-phenoxy)-ethyl]-phenyl}-3,9-diaza-bicyclo[3.3.1]non-6-ene-6-carboxylic acid [2-chloro-5-(3-methoxy-propyl)-benzyl]-cyclopropyl-amide] |
| 0.2 | COCCCc1ccc(Cl)c(CN(C(=O)C2=C(c3ccc(OCCOc4c(Cl)cc(C)cc4Cl)cc3)C[C@@H]3CNC[C@H]2N3)C2CC2)c1 [Example 4, (1R,5S)-7-{4-[2-(2,6-Dichloro-4-methyl-phenoxy)-ethoxy]-phenyl}-3,9-diaza-bicyclo[3.3.1]non-6-ene-6-carboxylic acid [2-chloro-5-(3-methoxy-propyl)-benzyl]-cyclopropyl-amide] |
| 0.3 | COCCCc1ccc(Cl)c(CN(C(=O)C2=C(c3ccc(OCCOc4c(Cl)cc(C)cc4Cl)cc3)C[C@@H]3CN(C(=N)N)C[C@H]2N3)C2CC2)c1 [Example 11, (1R,5S)-3-Carbamimidoyl-7-{4-[2-(2,6-dichloro-4-methyl-phenoxy)-ethoxy]-phenyl}-3,9-diaza-bicyclo[3.3.1]non-6-ene-6-carboxylic acid cyclopropyl-[2-chloro-5-(3-methoxy-propyl)-benzyl]-amide Hydrochloride Salt] |
| 0.8 | COCCCc1ccc(Cl)c(CN(C(=O)C2=C(c3ccc(OCCOc4c(Cl)cc(C)cc4Cl)cc3)C[C@@H]3CN(C(=O)NC4CC4)C[C@H]2N3)C2CC2)c1 [Example 13, (1R,5S)-7-{4-[2-(2,6-Dichloro-4-methyl-phenoxy)-ethoxy]-phenyl}-3,9-diaza-bicyclo[3.3.1]non-6-ene-3,6-dicarboxylic acid 3-cyclopropylamide 6-{cyclopropyl-[2-chloro-5-(3-methoxy-propyl)-benzyl]-amide}] |
| 0.5 | COCCCc1ccc(Cl)c(CN(C(=O)C2=C(c3ccc(OCCOc4c(Cl)cc(C)cc4Cl)nc3)CCNC2)C2CC2)c1 [Example 18, 6-[2-(2,6-Dichloro-4-methyl-phenoxy)-ethoxy]-1′,2′,5′,6′-tetrahydro-[3,4′]bipyridinyl-3′-carboxylic acid [2-chloro-5-(3-methoxy-propyl)-benzyl]-cyclopropyl-amide] |
| 0.14 | COCCc1ccc(Cl)c(CN(C(=O)[C@@H]2[C@@H](c3ccc(OCCOc4c(Cl)cc(C)cc4Cl)cc3)C[C@@H]3CC[C@H]2N3)C2CC2)c1 [Example 26, (1R,2R,3S,5S)-3-{4-[2-(2,6-Dichloro-4-methyl-phenoxy)-ethoxy]-phenyl}-8-aza-bicyclo[3.2.1]octane-2-carboxylic acid [2-chloro-5-(2-methoxy-ethyl)-benzyl]-cyclopropyl-amide] |
| 0.1 | COCCCc1cc(CN(C(=O)C2=C(c3ccc(OCc4cc(-c5c(F)ccc(F)c5Cl)no4)cc3)CCNC2)C2CC2)c(Cl)cn1 [Example 34, 4-{4-[3-(2-Chloro-3,6-difluoro-phenyl)-isoxazol-5-ylmethoxy]-phenyl}-1,2,5,6-tetrahydro-pyridine-3-carboxylic acid [5-chloro-2-(3-methoxy-propyl)-pyridin-4-ylmethyl]-cyclopropyl-amide] |
| 0.26 | COCCCc1cc(CN(C(=O)C2=C(c3ccc(OCCOc4c(Cl)cc(C)cc4Cl)nc3)C[C@@H]3CNC[C@H]2N3)C2CC2)c(Cl)cn1 [Example 42, (1R,5S)-7-{6-[2-(2,6-Dichloro-4-methyl-phenoxy)-ethoxy]-pyridin-3-yl}-3,9-diaza-bicyclo[3.3.1]non-6-ene-6-carboxylic acid [5-chloro-2-(3-methoxy-propyl)-pyridin-4-ylmethyl]-cyclopropyl-amide] |
| 0.24 | COCCCc1ccc(Cl)c(CN(C(=O)C2=C(c3ccc(OCc4cc(-c5c(F)ccc(F)c5Cl)no4)cc3)C[C@@H]3CN(C(C)=O)C[C@H]2N3)C2CC2)c1 [Example 50, (1R,5S)-3-Acetyl-7-{4-[3-(2-chloro-3,6-difluoro-phenyl)-isoxazol-5-ylmethoxy]-phenyl}-3,9-diaza-bicyclo[3.3.1]non-6-ene-6-carboxylic acid [2-chloro-5-(3-methoxy-propyl)benzyl]-cyclopropyl-amide] |
| 0.26 | COCCc1ccc(Cl)c(CN(C(=O)[C@@H]2[C@@H](c3ccc(OCc4cc(-c5c(F)ccc(F)c5Cl)no4)cc3)C[C@@H]3CC[C@H]2N3)C2CC2)c1 [Example 60, (1R,2R,3S,5S)-3-{4-[3-(2-Chloro-3,6-difluoro-phenyl)isoxazol-5-ylmethoxy]-phenyl}-8-aza-bicyclo[3.2.1]octane-2-carboxylic acid [2-chloro-5-(2-methoxy-ethyl)benzyl]-cyclopropyl-amide] |
| 0.63 | Cc1cc(Cl)c(O[C@@H]2CCN(c3ccc([C@H]4CCNC[C@@H]4C(=O)N(Cc4cc(CNC(=O)CC(F)(F)F)ccc4Cl)C4CC4)cn3)C2)c(Cl)c1 [Example 67, (3′R,4′S)-6-[(R)-3-(2,6-Dichloro-4-methyl-phenoxy)-pyrrolidin-1-yl]-1′,2′,3′,4′,5′,6′-hexahydro-[3,4′]bipyridinyl-3′-carboxylic acid {2-chloro-5-[(3,3,3-trifluoro-propionylamino)-methyl]-benzyl}-cyclopropyl-amide] |
| 0.22 | O=C([C@H]1CNCC[C@@H]1c1ccc(OCc2cc(-c3c(F)ccc(F)c3Cl)no2)cc1)N(Cc1cc(CNCC(F)F)ccc1Cl)C1CC1 [Example 77, (3R,4S)-4-{4-[3-(2-Chloro-3,6-difluoro-phenyl)isoxazol-5-ylmethoxy]-phenyl}-piperidine-3-carboxylic acid {2-chloro-5-[(2,2-difluoro-ethylamino)-methyl]-benzyl}-cyclopropyl-amide] |
| 0.18 | O=C(NCc1ccc(Cl)c(CN(C(=O)[C@H]2CNCC[C@@H]2c2ccc(OCc3cc(-c4c(F)ccc(F)c4Cl)no3)cc2)C2CC2)c1)C1CC1 [Example 83, (3R,4S)-4-{4-[3-(2-Chloro-3,6-difluoro-phenyl)-isoxazol-5-ylmethoxy]-phenyl}-piperidine-3-carboxylic acid {2-chloro-5-[(cyclopropanecarbonyl-amino)-methyl]-benzyl}-cyclopropyl-amide] |
| 0.38 | Cc1cc(Cl)c(O[C@@H]2CCN(c3ccc([C@H]4CCNC[C@@H]4C(=O)N(Cc4cc(CNC(=O)C5CC5)ccc4Cl)C4CC4)cn3)C2)c(Cl)c1 [Example 93, (3′R,4′S)-6-[(R)-3-(2,6-Dichloro-4-methyl-phenoxy)-pyrrolidin-1-yl]-1′,2′,3′,4′,5′,6′-hexahydro-[3,4′]bipyridinyl-3′-carboxylic acid {2-chloro-5-[(cyclopropanecarbonyl-amino)-methyl]-benzyl}-cyclopropyl-amide] |

From patent US7968720B2, “Secondary amines as renin inhibitors” (Actelion Pharmaceuticals Ltd., priority 2006, dated 2011)
